Columns and labels:
PP1B = biological target: T1, PP1B (Homo sapiens, UniProt P62140); experiment: Phosphatase assay PP1B (DiFMUP fluorescence); format: biochemical; details: for IC50: Table 2B, read-out: Compound IC50 (M) PP1B
T1 construct: purchased Recation Biology Inc

PP1A = biological target: T2, PP1A (Homo sapiens, UniProt P62136); experiment: Phosphatase assay PP1A (DiFMUP fluorescence); format: biochemical; details: for IC50: Table 2B, read-out: Compound IC50 (M) PP1A
T2 construct: purchased Recation Biology Inc
T2 sequence (P62136 whole entry): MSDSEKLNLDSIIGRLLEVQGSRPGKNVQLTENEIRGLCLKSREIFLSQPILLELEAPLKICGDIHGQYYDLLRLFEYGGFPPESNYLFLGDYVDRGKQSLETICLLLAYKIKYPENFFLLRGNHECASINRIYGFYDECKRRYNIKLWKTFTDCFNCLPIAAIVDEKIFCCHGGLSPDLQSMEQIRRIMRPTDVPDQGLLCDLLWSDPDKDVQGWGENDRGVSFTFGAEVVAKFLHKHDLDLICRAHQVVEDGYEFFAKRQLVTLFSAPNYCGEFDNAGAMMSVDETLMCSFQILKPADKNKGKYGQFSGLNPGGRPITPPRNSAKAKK

PTPN6/SHP1 = biological target: T3, PTPN6/SHP1 (Homo sapiens, UniProt P29350); experiment: Phosphatase assay PTPN6/SHP1; format: biochemical; details: for IC50: Table 2B, read-out: Compound IC50 (M) PTPN6/SHP1
T3 construct: purchased Recation Biology Inc
T3 sequence (P29350 whole entry): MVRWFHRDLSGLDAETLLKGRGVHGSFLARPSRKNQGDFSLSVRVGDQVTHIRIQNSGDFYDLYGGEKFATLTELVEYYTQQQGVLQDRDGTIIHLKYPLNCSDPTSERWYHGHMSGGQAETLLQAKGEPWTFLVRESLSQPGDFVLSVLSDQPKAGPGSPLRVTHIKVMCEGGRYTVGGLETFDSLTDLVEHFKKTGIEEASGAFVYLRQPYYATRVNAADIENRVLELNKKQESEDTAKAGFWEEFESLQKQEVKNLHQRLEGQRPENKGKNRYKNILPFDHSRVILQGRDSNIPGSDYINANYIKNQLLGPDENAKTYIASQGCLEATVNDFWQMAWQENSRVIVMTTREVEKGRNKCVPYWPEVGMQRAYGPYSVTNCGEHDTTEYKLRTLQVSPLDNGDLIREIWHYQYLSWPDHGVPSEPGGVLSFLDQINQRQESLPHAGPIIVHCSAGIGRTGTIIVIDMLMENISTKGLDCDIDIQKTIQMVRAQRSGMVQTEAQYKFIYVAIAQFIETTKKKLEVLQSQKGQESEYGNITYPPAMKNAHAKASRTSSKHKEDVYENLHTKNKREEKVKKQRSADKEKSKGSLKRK

PTPRC/CD45 = biological target: T4, PTPRC/CD45 (Homo sapiens, UniProt P08575); experiment: Phosphatase assay PTPRC/CD45; format: biochemical
T4 construct: purchased Recation Biology Inc
T4 sequence (P08575 26-1306): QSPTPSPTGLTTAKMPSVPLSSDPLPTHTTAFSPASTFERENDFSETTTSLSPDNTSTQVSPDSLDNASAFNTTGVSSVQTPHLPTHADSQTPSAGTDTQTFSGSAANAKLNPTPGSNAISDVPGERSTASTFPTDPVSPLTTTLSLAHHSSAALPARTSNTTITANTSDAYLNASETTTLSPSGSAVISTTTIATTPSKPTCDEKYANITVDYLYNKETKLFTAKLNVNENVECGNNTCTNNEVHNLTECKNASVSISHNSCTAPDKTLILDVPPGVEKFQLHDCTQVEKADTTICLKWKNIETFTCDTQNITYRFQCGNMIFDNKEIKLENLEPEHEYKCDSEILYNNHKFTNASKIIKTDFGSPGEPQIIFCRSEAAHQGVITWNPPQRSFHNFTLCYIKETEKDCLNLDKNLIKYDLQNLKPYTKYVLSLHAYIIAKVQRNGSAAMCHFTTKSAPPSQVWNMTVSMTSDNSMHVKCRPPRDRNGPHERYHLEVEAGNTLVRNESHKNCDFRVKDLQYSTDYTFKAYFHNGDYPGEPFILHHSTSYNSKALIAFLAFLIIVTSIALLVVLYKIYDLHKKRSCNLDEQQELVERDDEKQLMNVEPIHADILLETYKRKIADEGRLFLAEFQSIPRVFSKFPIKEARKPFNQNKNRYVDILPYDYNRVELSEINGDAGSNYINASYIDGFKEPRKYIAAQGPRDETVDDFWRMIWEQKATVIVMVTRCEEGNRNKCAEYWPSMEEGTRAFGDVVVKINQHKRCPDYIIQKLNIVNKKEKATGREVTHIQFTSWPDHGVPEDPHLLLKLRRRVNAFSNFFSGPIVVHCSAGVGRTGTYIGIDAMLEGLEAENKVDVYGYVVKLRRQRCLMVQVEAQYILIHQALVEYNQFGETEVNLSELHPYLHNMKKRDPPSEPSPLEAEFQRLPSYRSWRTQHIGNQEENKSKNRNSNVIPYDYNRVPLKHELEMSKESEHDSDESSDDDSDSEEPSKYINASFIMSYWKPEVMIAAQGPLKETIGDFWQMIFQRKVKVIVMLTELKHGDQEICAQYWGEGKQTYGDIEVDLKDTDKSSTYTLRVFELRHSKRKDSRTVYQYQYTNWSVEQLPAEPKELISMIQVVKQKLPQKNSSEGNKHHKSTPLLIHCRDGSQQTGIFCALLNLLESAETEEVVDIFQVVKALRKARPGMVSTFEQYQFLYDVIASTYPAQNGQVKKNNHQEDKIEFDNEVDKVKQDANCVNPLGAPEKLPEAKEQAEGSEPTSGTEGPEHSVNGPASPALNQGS

PTPN2/TC-PTP = biological target: T5, PTPN2/TC-PTP (Homo sapiens, UniProt P17706); experiment: Phosphatase assay PTPN2/TC-PTP; format: biochemical; details: for IC50: Table 2C, read-out: Compound IC50 (M) PTPN2/TC-PTP
T5 construct: purchased Recation Biology Inc
T5 sequence (P17706 1-415): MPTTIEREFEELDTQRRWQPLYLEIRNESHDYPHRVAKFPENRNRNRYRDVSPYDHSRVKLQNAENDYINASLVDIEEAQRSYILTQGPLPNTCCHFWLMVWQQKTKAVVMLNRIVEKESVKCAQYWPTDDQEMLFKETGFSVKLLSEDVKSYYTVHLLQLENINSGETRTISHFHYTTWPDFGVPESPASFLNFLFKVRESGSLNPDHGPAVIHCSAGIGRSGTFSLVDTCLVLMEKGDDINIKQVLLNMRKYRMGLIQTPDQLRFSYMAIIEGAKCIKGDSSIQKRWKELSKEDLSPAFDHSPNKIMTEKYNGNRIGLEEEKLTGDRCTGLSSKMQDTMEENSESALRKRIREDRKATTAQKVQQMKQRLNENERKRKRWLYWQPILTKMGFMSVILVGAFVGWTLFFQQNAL

[1] = Weight loss in male Swiss Webster mice, i.p. dosing; format: in vivo; details: male Swiss Webster mice about 50 g, i.p. 10 mg/kg every other day; for loss of starting body weight: by 27 days
From the text: Food was provided ad lib.

[2] = Weight gain in growing male mice; format: in vivo; details: growing male mice about 25 g, similar dosing regimen
Description: In a second experiment, growing male mice, about 25 grams, were administered either compound following a similar dosing regimen. As in the previous experiment, both compounds affected weight gain.

PTPN11/SHP2-FL (E76K) = biological target: T6, PTPN11/SHP2-FL (E76K) (Homo sapiens, UniProt Q06124, E76K); experiment: Phosphatase assay PTPN11/SHP2-FL (E76K)
T6 sequence (Q06124 2-597 isoform Q06124-1 E76K): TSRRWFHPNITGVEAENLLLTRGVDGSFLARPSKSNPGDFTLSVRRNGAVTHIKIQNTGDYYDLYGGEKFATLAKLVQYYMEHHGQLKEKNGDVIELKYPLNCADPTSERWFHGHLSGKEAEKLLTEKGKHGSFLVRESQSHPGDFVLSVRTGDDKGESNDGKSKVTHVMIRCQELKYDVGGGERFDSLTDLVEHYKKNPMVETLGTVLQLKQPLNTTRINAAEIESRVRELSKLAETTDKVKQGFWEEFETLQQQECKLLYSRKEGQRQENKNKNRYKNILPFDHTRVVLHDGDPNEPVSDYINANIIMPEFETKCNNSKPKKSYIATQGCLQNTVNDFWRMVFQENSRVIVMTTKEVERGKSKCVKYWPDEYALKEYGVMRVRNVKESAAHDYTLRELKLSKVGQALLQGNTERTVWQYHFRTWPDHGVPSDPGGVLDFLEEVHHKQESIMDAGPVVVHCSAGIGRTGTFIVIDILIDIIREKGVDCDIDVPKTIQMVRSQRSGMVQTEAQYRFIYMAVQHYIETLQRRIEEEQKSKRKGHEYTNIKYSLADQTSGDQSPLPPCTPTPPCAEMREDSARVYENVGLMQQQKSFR

PTPN11/SHP2 = PTPN11/SHP2 (Homo sapiens, UniProt Q06124); experiment: Phosphatase assay PTPN11/SHP2; format: biochemical; details: Table 2C; read-out: Compound IC50 (M) PTPN11/SHP2
Chain of PTPN11/SHP2 (Q06124 whole entry): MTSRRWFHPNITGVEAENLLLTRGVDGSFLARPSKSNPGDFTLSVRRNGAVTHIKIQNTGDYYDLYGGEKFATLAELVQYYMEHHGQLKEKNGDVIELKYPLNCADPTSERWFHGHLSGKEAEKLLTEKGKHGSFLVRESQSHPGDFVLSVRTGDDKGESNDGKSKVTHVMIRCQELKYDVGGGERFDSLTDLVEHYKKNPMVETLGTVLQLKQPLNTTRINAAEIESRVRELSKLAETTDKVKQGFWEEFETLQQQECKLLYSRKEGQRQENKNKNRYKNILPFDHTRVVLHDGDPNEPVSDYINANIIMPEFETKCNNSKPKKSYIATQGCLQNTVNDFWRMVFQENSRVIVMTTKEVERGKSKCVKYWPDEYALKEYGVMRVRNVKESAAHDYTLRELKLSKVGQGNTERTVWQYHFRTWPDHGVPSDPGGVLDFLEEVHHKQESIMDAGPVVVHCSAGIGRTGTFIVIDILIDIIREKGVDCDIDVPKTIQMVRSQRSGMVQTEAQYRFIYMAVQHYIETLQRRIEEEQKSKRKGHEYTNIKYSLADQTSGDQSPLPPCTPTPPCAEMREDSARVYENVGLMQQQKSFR

T1 sequence (P62140 whole entry): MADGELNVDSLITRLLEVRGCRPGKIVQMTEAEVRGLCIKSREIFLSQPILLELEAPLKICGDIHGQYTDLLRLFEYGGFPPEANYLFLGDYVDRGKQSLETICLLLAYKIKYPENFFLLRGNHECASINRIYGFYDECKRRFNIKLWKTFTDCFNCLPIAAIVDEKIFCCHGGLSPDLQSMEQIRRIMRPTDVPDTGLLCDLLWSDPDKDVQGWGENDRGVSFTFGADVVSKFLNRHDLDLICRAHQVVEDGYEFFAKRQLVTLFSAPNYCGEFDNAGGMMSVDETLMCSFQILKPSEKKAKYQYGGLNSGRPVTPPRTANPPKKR

Row | Structure (SMILES) | activity at PP1B, in words (PP1B) | IC50 (PP1B) | activity at PP1A, in words (PP1A) | IC50 (PP1A) | IC50 (PTPN6/SHP1) | activity on PTPRC/CD45, in words (PTPRC/CD45) | IC50 (PTPRC/CD45; Table 2B, read-out: Compound IC50 (M) PTPRC/CD45) | activity at PTPN2, in words (PTPN2/TC-PTP) | IC50 (PTPN2/TC-PTP) | effect on weight, in words [1] | nadir of weight [1] | recovery to the starting weight [1] | loss of starting body weight [1] | effect on growth, in words [2] | inhibition of PTPN11 (E76K), in words (PTPN11/SHP2-FL (E76K)) | activity at PTPN6/SHP1, in words (PTPN6/SHP1) | IC50 (PTPN11/SHP2)
1 | CC(CCCC(C)C1CCC2C3C(O)CC4CC(NCCCNCCCCNCCCN)CCC4(C)C3CCC12C)C(=O)O (single isomer, unassigned; ent-03) [ENT-03, 3-β-Spermino-7α-hydroxy-5α-cholestanoic acid] | inactive | > 0.0001 M | inactive | > 0.0001 M | > 0.0001 M | target | 5.71e-07 M | inactive | > 0.0001 M | weight loss | ~16 days | ~45 days | about 10% | continued normal growth | potently inhibit |  | 
2 | CC(C)[C@@H](CC[C@@H](C)[C@H]1CC[C@H]2[C@@H]3[C@H](O)C[C@H]4C[C@@H](NCCCNCCCCNCCCN)CC[C@]4(C)[C@H]3CC[C@]12C)OS(=O)(=O)O (single isomer, unassigned) [ENT-02, trodusquemine] |  | > 0.0001 M |  | > 0.0001 M | > 0.0001 M | target |  |  | > 0.0001 M | more severe decline | ~16 days | ~45 days | about 10% | suppressed growth | potently inhibit | Neither compound inhibits | 3.75e-07 M

— patent US12503485B2, “Human aminosterol ENT-03 compounds, related compositions comprising the same, and methods of using the same” (Enterin, Inc., priority 2019, dated 2025)
